According to patent publication US20250019648A1, “A SPERM EXTENDER MEDIUM” (MEAT & LIVESTOCK AUSTRALIA LIMITED, priority 2021, published 2025):

How the values were obtained:
bovine spermatozoa [1] = assay: Fungicide comparison on bovine sperm motility; format: cell-based; details: Nystatin 100 U/mL, Fluconazole 12.5 mg/L and 25 mg/L; 1, 3, 7, 10 and 14 days at RT in glycine (82.2 mM) medium
Text: Sperm motility was objectively determined with computer assisted sperm analysis (CASA; IVOS, Hamilton Thorne, Danvers, MA) using the following settings; negative phase-contrast optics, recording rate of 60 frames/s, minimum contrast of 70, minimum cell size of 4 pixels, low size gate of 0.17, high size gate of 2.9, low intensity gate of 0.6, high intensity gate of 1.74, non-motile head size of 10 pixels, non-motile head intensity of 135, progressive VAP threshold of 50 μm/s, slow (static) cells VAP threshold of 20 μm/s, slow (static) cells VSL threshold of 0 μm/s and threshold STR of 75%. […] Cells with a VAP greater than that of the mean VAP of progressive cells were considered ‘rapid’. A minimum of 200 spermatozoa in a minimum of five fields were assessed using 20 μm Leja standard count slides (Gytech, Australia) and a stage temperature of 37° C. […]
Semen was collected, processed and stored according as above (Example 2, Section 1.1). Following 1, 3, 7, 10 and 14 days of storage at RT in the base extender solution as described (Example 2, Experiment 2) supplemented with glycine to a final concentration of 82.2 mM (pH of the medium was 7.9), sperm motility was assessed using CASA as above. Data were analysed using JMP v14 software (ANOVA).

bovine spermatozoa [2] = assay: Effects of medium components on bovine sperm motility after 24 hours at RT (Experiment 2); format: cell-based; details: for total and progressive motilities when 50% of the NaCl was replaced: L-carnitine 100 mM or choline chloride 95 mM; for effect on sperm motility at the 24 h mark as determined by CASA: field conditions, rosiglitazone 0-100 μM, sugar source, coenzyme Q10
Text: Institutional and New South Wales State Government ethical approval was secured for the use of animal material in this study. This research was based on ejaculates from 17 normozoospermic Angus bulls (between 3 and 7 years of age) of proven fertility, held on institutionally-approved premises at Charles Sturt University ([…], Australia). Semen was collected via electro-ejaculation, and the ejaculate was either left undiluted (Experiment 1) or was immediately diluted (2:1; extender:semen) with INRA96 (Experiments 2 and 3-Sections 2 and 3). […] Equipment and extender medium were maintained at temperatures between 30° C. and 37° C. for the duration of semen collection and dilution. The tubes of extended semen were then held in the laboratory at RT (approx. 20 to 25° C.) for up to 30 min prior to further processing. For Experiment 1, up to 6 mL of the extended semen was either centrifuged directly (700×g for 10 min), or was overlaid on top of BoviPureTM gradient and centrifuged at 700×g for 20 min, and for Experiments 2 and 3 up to 5 mL extended semen was layered on top of PercollTM gradients and centrifuged at 700×g for 30 min. Following centrifugation, the seminal plasma and density gradient media were removed and discarded. Spermatozoa were recovered from the base of the tubes, resuspended in 2 mL BWW and washed via centrifugation (500×g for 5 min) with BWW. These pelleted cells were then resuspended at a concentration of 50×10^6 spermatozoa/mL in the experimental extender media. Sperm motility was objectively determined with computer assisted sperm analysis (CASA; IVOS, Hamilton Thorne, Danvers, MA) using the following settings; negative phase-contrast optics, recording rate of 60 frames/s, minimum contrast of 70, minimum cell size of 4 pixels, low size gate of 0.17, high size gate of 2.9, low intensity gate of 0.6, high intensity gate of 1.74, non-motile head size of 10 pixels, non-motile head intensity of 135, progressive VAP threshold of 50 μm/s, slow (static) cells VAP threshold of 20 μm/s, slow (static) cells VSL threshold of 0 μm/s and threshold STR of 75%. […] Cells with a VAP greater than that of the mean VAP of progressive cells were considered 'rapid'. A minimum of 200 spermatozoa in a minimum of five fields were assessed using 20 μm Leja standard count slides ([…], Australia) and a stage temperature of 37° C.

bovine spermatozoa [3] = assay: Comparison of amino acid osmolytes on bovine sperm motility during liquid storage at RT; format: cell-based; details: for total and progressive motilities compared with other osmolyte treatments: Part 1, 7 days storage at RT, n=10 bulls; for total and progressive motilities compared with other osmolyte treatments / motility by day 14 of storage / loss in motility between 3 and 10 days of storage: 82.2 mM in base solution without NaCl; for motility by day 14 of storage / loss in motility between 3 and 10 days of storage / motility compared with NaCl and choline chloride controls: Part 2; for motility by day 14 of storage / loss in motility between 3 and 10 days of storage: RT; for loss in motility between 3 and 10 days of storage: n=9 bulls; for motility compared with NaCl and choline chloride controls: all time points (3, 7, 10, 14 days) at RT; for capability to prolong bovine sperm motility at room temperature: amino acid as osmolyte in extender medium
Text: Sperm motility was objectively determined with computer assisted sperm analysis (CASA; IVOS, Hamilton Thorne, Danvers, MA) using the following settings; negative phase-contrast optics, recording rate of 60 frames/s, minimum contrast of 70, minimum cell size of 4 pixels, low size gate of 0.17, high size gate of 2.9, low intensity gate of 0.6, high intensity gate of 1.74, non-motile head size of 10 pixels, non-motile head intensity of 135, progressive VAP threshold of 50 μm/s, slow (static) cells VAP threshold of 20 μm/s, slow (static) cells VSL threshold of 0 μm/s and threshold STR of 75%. […] Cells with a VAP greater than that of the mean VAP of progressive cells were considered ‘rapid’. A minimum of 200 spermatozoa in a minimum of five fields were assessed using 20 μm Leja standard count slides (Gytech, Australia) and a stage temperature of 37° C.
Bull semen (animals were housed at Charles Sturt University, Wagga Wagga, NSW, Australia) was collected via electroejaculation, immediately diluted 2:1 (extender:semen) with equine INRA96™ semen extender, and maintained at room temperature (RT) before further processing. Extended semen was then layered onto a discontinuous (45/90%) Percoll™ gradient and centrifuged at 700×g for 30 min to isolate high quality spermatozoa to be used for storage experiments described below. The high-quality pelleted spermatozoa were then resuspended in modified Biggers, Whitter and Whittingham (BWW) medium (Gibb et al., 2014) and washed again via centrifugation (300×g for 5 min). Pelleted spermatozoa were then resuspended in the various formulations described in each experiment, and stored in 5 mL Sarstedt specimen pots at RT (21-23° C.) in the dark until they were assessed.
This study was undertaken in 2 parts: the first was a screening of soluble amino acids (spermatozoa from split ejaculates of n=10 bulls), and the second was to confirm the results of the first part using only the most successful 3 amino acids (spermatozoa from split ejaculates of n=9 bulls). Sodium chloride and choline chloride were used as osmolyte controls.
The base bovine extender solution described above (Example 1, Experiment 3) was utilised for the purposes of these evaluations, with the exception that the 41.1 mM NaCl was not included in the base solution to which either the test amino acid or choline chlorine was added. Test amino acid was added to the base solution to a final concentration of 82.2 mM whilst the controls contained either the NaCl or choline chloride to a final concentration of 41.1 mM. The initial pH of solutions varied between 7-10 and were adjusted to be between 7.5 and 8.0 with either KOH or HCl. All test media were supplemented with 100 U/ml Nystatin to control fungal growth. Sperm motility was assessed as per Example 1.
For Part 1 of the study, motility was evaluated following 7 days liquid storage at room temperature (RT). Motility of spermatozoa was evaluated at 3, 7, 10 and 14 days liquid storage at RT for Part 2 of the study. Data were again analysed using JMP v14 software (ANOVA).

[4] = Lide, Handbook of Chemistry and Physics, 72nd Edition; cited from earlier work

OC(Cn1cncn1)(Cn1cncn1)c1ccc(F)cc1F [Fluconazole]
difference in sperm motility between antifungal treatments and control with no antifungal (bovine spermatozoa [1]): No significant differences

C[N+](C)(C)C[C@H](O)CC(=O)[O-] [L-carnitine]
total and progressive motilities when 50% of the NaCl was replaced (bovine spermatozoa [2]; 24 hours at RT): improved

CC(=O)C(=O)[O-].[Na+] [Sodium pyruvate]
difference in sperm motility versus absence of the component (bovine spermatozoa [2]; 0.275 mM to 20 mM, 24 hours at RT): No significant difference

C[C@H](N)C(=O)O [alanine]
total and progressive motilities compared with other osmolyte treatments (bovine spermatozoa [3]): significantly higher than all other treatments
motility by day 14 of storage (bovine spermatozoa [3]): significantly declined
loss in motility between 3 and 10 days of storage (bovine spermatozoa [3]): did not suffer any significant loss in motility
motility compared with NaCl and choline chloride controls (bovine spermatozoa [3]): significantly higher than both of the controls
isoelectric point (pI) [4]: 6.0

C[N+](C)(C)CCO.[Cl-] [choline chloride, reference compound]
total and progressive motilities when 50% of the NaCl was replaced (bovine spermatozoa [2]; 24 hours at RT): improved

COC1=C(OC)C(=O)C(C/C=C(\C)CC/C=C(\C)CC/C=C(\C)CC/C=C(\C)CC/C=C(\C)CC/C=C(\C)CC/C=C(\C)CC/C=C(\C)CC/C=C(\C)CCC=C(C)C)=C(C)C1=O [coenzyme Q10]
effect on sperm motility at the 24 h mark as determined by CASA (bovine spermatozoa [2]): No significant effects

N[C@@H](CS)C(=O)O [cysteine]
capability to prolong bovine sperm motility at room temperature (bovine spermatozoa [3]): no or only relatively limited capability
isoelectric point (pI) [4]: 5.07

O=C(CO)[C@@H](O)[C@H](O)[C@H](O)CO [fructose]
effect on sperm motility at the 24 h mark as determined by CASA (bovine spermatozoa [2]): No significant effects

NCC(=O)O [glycine]
total and progressive motilities compared with other osmolyte treatments (bovine spermatozoa [3]): significantly higher than all other treatments
motility by day 14 of storage (bovine spermatozoa [3]): significantly declined
loss in motility between 3 and 10 days of storage (bovine spermatozoa [3]): did not suffer any significant loss in motility
motility compared with NaCl and choline chloride controls (bovine spermatozoa [3]): significantly higher than both of the controls
isoelectric point (pI) [4]: 5.97

CC[C@H](C)[C@H](N)C(=O)O [isoleucine]
capability to prolong bovine sperm motility at room temperature (bovine spermatozoa [3]): no or only relatively limited capability
isoelectric point (pI) [4]: 6.02

CC(C)C[C@H](N)C(=O)O [leucine]
capability to prolong bovine sperm motility at room temperature (bovine spermatozoa [3]): no or only relatively limited capability

CSCC[C@H](N)C(=O)O [methionine]
capability to prolong bovine sperm motility at room temperature (bovine spermatozoa [3]): no or only relatively limited capability
isoelectric point (pI) [4]: 5.74

N[C@@H](Cc1ccccc1)C(=O)O [phenylalanine]
capability to prolong bovine sperm motility at room temperature (bovine spermatozoa [3]): no or only relatively limited capability
isoelectric point (pI) [4]: 5.48

O=C(O)[C@@H]1CCCN1 [proline]
capability to prolong bovine sperm motility at room temperature (bovine spermatozoa [3]): no or only relatively limited capability
isoelectric point (pI) [4]: 6.3

OC[C@H]1O[C@H](OC[C@H]2O[C@H](O[C@]3(CO)O[C@H](CO)[C@@H](O)[C@@H]3O)[C@H](O)[C@@H](O)[C@@H]2O)[C@H](O)[C@@H](O)[C@H]1O [raffinose]
effect on sperm motility at the 24 h mark as determined by CASA (bovine spermatozoa [2]): No significant effects

OC[C@H]1O[C@@](CO)(O[C@H]2O[C@H](CO)[C@@H](O)[C@H](O)[C@H]2O)[C@@H](O)[C@@H]1O [sucrose]
effect on sperm motility at the 24 h mark as determined by CASA (bovine spermatozoa [2]): No significant effects

NCCS(=O)(=O)O [taurine, 2-aminoethane-1-sulfonic acid]
total and progressive motilities compared with other osmolyte treatments (bovine spermatozoa [3]): significantly higher than all other treatments
total and progressive motility, taurine compared with valine (bovine spermatozoa [3]; day 3 of liquid storage): better total and progressive motility

N[C@@H](Cc1c[nH]c2ccccc12)C(=O)O [tryptophan]
capability to prolong bovine sperm motility at room temperature (bovine spermatozoa [3]): no or only relatively limited capability
isoelectric point (pI) [4]: 5.89

CC(C)[C@H](N)C(=O)O [valine]
total and progressive motilities compared with other osmolyte treatments (bovine spermatozoa [3]): substantially better
motility by day 14 of storage (bovine spermatozoa [3]): significantly declined
loss in motility between 3 and 10 days of storage (bovine spermatozoa [3]): did not suffer any significant loss in motility
motility compared with NaCl and choline chloride controls (bovine spermatozoa [3]): significantly higher than both of the controls
motility, valine compared with taurine (bovine spermatozoa [3]; day 14 of liquid storage, data not shown): better motility
isoelectric point (pI) [4]: 5.96
